# Test results published in patent US4131615A, “Furan derivative for use as pharmaceutical product particularly for the treatment of rheumatic illnesses” (A. Wasserman S.p.A., priority 1977, dated 1978).
# Assays:
# [1] = Acute oral toxicity in mice; parameters: species or system male and female Swiss mice; conditions: in vivo, mouse, 14 days, approximate value
# Description: (§1) The product of the EXAMPLE 1, ±αmethyl-4-(furan-2-carbonyl)phenyl acetic acid, was subjected to toxicological and pharmacological tests in rats and mice. The animals used were Sprague Dawley rats and Swiss mice of both sexes, to which the product was administered orally as a 2% suspension in gum arabic parenterally as the sodium salt.
# (§2) This has been tested in male and female mice weighing from 18 to 22 g and in female rats weighing from 90 to 120 grams.
# (§3) The product was administered to groups of 6 mice and groups of 6 rats, mortality being looked for 14 days after the administration.
# [2] = Acute oral toxicity in rats; parameters: species or system female Sprague Dawley rats; conditions: in vivo, rat, 14 days, approximate value
# Description: as §1, §2, §3
# [3] = system: edema induced by Carrageenan; experiment: Anti-inflammatory activity, Carrageenan-induced edema; type: in vivo, male Sprague Dawley rats; conditions: 80 mg/Kg oral, 30 minutes before Carrageenan, after 3 hours
# Description: as §1
# An edema was induced in male rats weighing about 120 grams by injection into the aponeurosis under the plantaris of the left foot of 0.1 ml of 1% Carrageenan in saline.
# The oral administration of 80-40-20 mg/Kg of product, 30 minutes before the inflammatory agent, reduced after 3 hours the development of the edema by rispectively 53%-47% -23% with respect to that induced in the controls.
# [4] = system: Nystatin subplantaris edema; experiment: Curative activity, Nystatin subplantaris edema; type: in vivo; conditions: rat, doses equal to those cited above (80-40-20 mg/Kg)
# Description: as §1
# [5] = system: Cotton-Pellet induced granuloma; experiment: Anti-inflammatory activity on Cotton-Pellet induced granuloma; type: in vivo, female Sprague Dawley rats; conditions: 15 mg/Kg oral daily for 7 days, divided into 4 administrations over 9 hours
# Description: as §1
# 3) Anti-inflammatory activity on Cotton-Pellet induced granuloma.
# The oral administration daily for 7 days of a dose of 15 mg/Kg of the product, divided into 4 administrations taken over a time of 9 hours, reduced the formation of granulomatous tissue formed around Cotton-Pelletsplanted aseptically under the skin of female rats, weighing from 180 to 200 grams, by 17% with respect to controls.
# [6] = system: contortions caused by phenyl-p-benzoquinone; experiment: Analgesic activity, phenyl-p-benzoquinone contortions; type: in vivo, female Swiss mice; conditions: Mus musculus; oral, female mice, contortions by intraperitoneal 0.02% phenyl-p-benzoquinone
# Description: as §1
# The oral administration of the product to female mice weighing from 18 to 22 grams reduced the number of contortions caused by the intraperitoneal injection of 0.1 ml/10 g of body weight of a 0.02% solution of phenyl-p-benzoquinone.
# Yeast-Induced fever = experiment: Antipyretic Effect in Yeast-Induced fever; type: in vivo, female Sprague Dawley rats; conditions: 80 mg/Kg oral, after 60 minutes (peak-effect)
# Description: as §1
# 5) Antipyretic Effect in Yeast-Induced fever.
# The oral administration of rispectively 80-40-20 mg/Kg of the product to female rats reduces the increase in temperature of the rectum, caused by the injection under the skin of 10 ml/Kg of 15% brewer's yeast in 1% arabic gum, by rispectively 71%-63%-33% after 60 minutes (peak-effect) from the administration.
# [7] = system: experimentally induced arthritis (Freund's adjuvant arthritis); experiment: Freund's adjuvant arthritis; type: in vivo; conditions: 20-40 mg/Kg oral, rat, confirmed by radiologic test
# arterial pressure = experiment: Action on arterial pressure; type: in vivo; conditions: endovenous injection, 2.5-12.5-62.5 mg/Kg, rabbit
# Excerpt: 7) Action on arterial pressure.
smiles,measurement,setting,value
"CC(C(=O)O)c1ccc(C(=O)c2ccco2)cc1 (racemic) [Example 1, ±α-methyl-4-(furan-2-carbonyl)-phenylacetic acid]",LD50 at 336 h,[1],~1000 mg/kg
same,LD50 at 336 h,[2],~980 mg/kg
same,reduction of the development of the edema with respect to controls,[3],53%
same,regress of the Nystatin subplantaris edema (curative activity),[4],induce in the rat a regress of the Nystatin subplantaris edema
same,reduction of the formation of granulomatous tissue with respect to controls,[5],17%
same,ED50,[6],4.35 mg/kg
same,reduction of the increase in temperature of the rectum,Yeast-Induced fever,71%
same,Recovery from experimentally induced arthritis,[7],Recovery from experimentally induced arthritis in the rat (Freund's adjuvant arthritis) has been obtained
same,variations in the blood pressure,arterial pressure,does not induce significant variations in the blood pressure
